PMC3762901, “Cyclic Peptide Inhibitors of the β-Sliding Clamp in Staphylococcus aureus” (PLoS ONE, 2013)
Where “and” joins values, the source holds several entries; their conditions need not be identical. Equal values may be shown once. Read-outs that look alike come from different tables or passages of the source. Ends that are not written are not given here. Peptide text beside a SMILES is read from it.

Tests used:
[1] = test system: S. epidermidis; assay type: cell-based, Staphylococcus epidermidis; conditions: for Potency against S. epidermidis compared with S. aureus: cyclic peptides, data not shown
Method: (§1) The antibacterial activities of the purified peptides were determined against Staphylococcus epidermidis and S. aureus. […] We can conclude that some but not all of the identified cyclic peptides are able to penetrate the bacterial membrane to find their intracellular target. […] As expected none of the peptides isolated had any activity towards E. coli, whereas they inhibited growth of B. subtilis, another gram positive bacterium (data not shown).

[2] = test system: S. aureus DnaN-DnaN interaction (β-sliding clamp dimerization); assay: Bacterial two-hybrid (BTH) β-galactosidase assay of DnaN-DnaN interaction; assay type: cell-based, Staphylococcus aureus; conditions: for Ability to interfere with DnaN dimerization after reduction to 8-mers: cyclic 8-mers with the sequence SXXXXXXG expressed intracellularly, not shown; for Reduction of DnaN-DnaN interaction when produced intracellularly: cyclic peptides expressed in E. coli, Fig. 3
Method: The library was screened for peptides able to disrupt DnaN-DnaN interaction of the Staphylococcus replisome by transforming into the R-BTH strain SC01 containing interacting Cya fusion proteins. Cells were plated on plates containing 5-FOA and 1 mM IPTG to induce expression of the cyclic peptides. We readily identified clones where expressed peptides restored cell viability in the presence of 5-FOA (Fig. 3A). To initially assess the activity of the selected peptides we determined their ability to reduce DnaN-DnaN interaction in the original two hybrid system.
Figure 3 Identification of peptides that interfere with DnaN-DnaN interaction. […] After screening of our SICLOPPS library, growth was restored in 7 clones.A. (B) The cyclic peptides identified in (A) were expressed in the original bacterial two-hybrid strain (BTH101) containing T18:DnaN and DnaN:T25 fusion plasmids and the level of β-galactosidase activity was determined as described in Materials and Methods.
Bacterial two-hybrid assay was performed as described previously. Derivatives of plasmids pUT18 and p25N encoding replication proteins were constructed by cloning PCR-amplified DNA fragments in frame with the T25 and T18 fragments of cya. T18 and T25 fusions were transformed into BTH101, and plated on plates containing 40 μg/ml of 5-bromo-4-chloro-indolyl-β-D-galactoside (X-gal) and relevant antibiotics. […] For β-galactosidase assays, cells were grown exponentially at 30°C in LB supplemented with 0.5 mM IPTG, and β-galactosidase activities were measured as described by.

[3] = test system: S. aureus or S. epidermidis; assay type: cell-based
From the text: In agreement with this none of these peptides were particularly hydrophobic or cationic (Table 4). […] This could be tested by construction of deletion mutants lacking one or more of these permeases. We synthesized and tested linear counterparts of the active peptides III-5, III-6 and III-7. […] Increased antibacterial activity of peptides due to circularization has previously been described.

[4] = test system: S. aureus; assay type: cell-based, Staphylococcus aureus
Method: as §1

[5] = test system: DNA replication in S. aureus strain 8325-4; assay: DNA synthesis, incorporation of 3H-thymidine; assay type: cell-based, Staphylococcus aureus; conditions: 50 μg/ml peptide; LB, 37°C; TCA precipitate, scintillation counting; repeated 3 times
Method: (§2) In order to test the direct effects of peptides III-5 and III-6 on DNA replication in S. aureus, strain 8325-4 was grown exponentially at 37°C in LB medium. Incorporation of ^3H-thymidine into the DNA was determined at various times after addition of 50 μg/ml of peptides III-5 or III-6. […] Protein synthesis, determined as incorporation of ^35S-methionine, was unaffected by peptide addition for at least 180 minutes (Fig. S1) which is well after the onset of DNA synthesis inhibition. Therefore the DNA replication inhibition is not a consequence of a more general effect on protein synthesis, and we conclude that peptide III-5 and III-6 inhibits replication by interfering with the dnaN encoded β-clamp.
Figure 5 Peptides III-5 and III-6 Inhibit DNA replication. […] Samples were taken at the indicated time-points and incorporation of ^3H into DNA was measured by liquid scintillation counting of TCA precipitated material. […]
For measuring DNA and protein synthesis, S. aureus strain 8325−4 was grown exponentially at 37°C in LB supplemented with 0.2 ml ^3H-thymidine (20 Ci/mmol,1 mCi/ml; Perkin Elmer Inc.) and uridine (50 μg/ml). […] The incorporation of ^3H into DNA was determined using a 1450 MicroBeta TriLux Microplate and Scintillation and Luminiscence counter (Perkin Elmer Inc.).

[6] = test system: Protein synthesis in S. aureus strain 8325-4; assay: Protein synthesis, incorporation of 35S-methionine; assay type: cell-based, Staphylococcus aureus; conditions: 50 μg/ml peptide; for at least 180 minutes; repeated 3 times
Method: as §2
S. aureus strain 8325-4 was grown exponentially in LB supplemented with ^35S-methionine. At T=0 peptide III-5 (grey triangles) or III-6 (green squares) was added to a final concentration of 50 μg/ml. Addition of buffer (red filled circles) served as control. Samples were taken at the indicated time-points and incorporation of ^35S into protein was measured by liquid scintillation counting of TCA precipitated material. The experiment was repeated 3 times with similar result. The result from one experiment is shown.

[7] = test system: S. aureus strain 8325-4; assay: Growth (colony forming units) of S. aureus with or without DnaN overproduction after peptide addition; assay type: cell-based, Staphylococcus aureus; conditions: 40 μg/ml peptide, LB, 37°C, repeated 4 times; for Bacterial growth of uninduced cultures after peptide addition: 8 hours duration, colony forming units; for Bacterial growth of cultures overproducing DnaN after peptide addition: dnaN induced with 10 μM CdCl2 3 hours before (pSC141)
Method: To ensure that the antibacterial effects of peptides III-5 and III-6 were the result of direct interaction of these peptides with the β-clamp, we decided to overproduce DnaN in S. aureus cells. The dnaN gene was cloned under control of the cadmium induclible pCAD promoter of plasmid pCN51 [37]. Cells were grown exponentially at 37°C in LB medium and 3 hours prior to peptide addition expression of dnaN was induced by addition of 10 μM CdCl2. At time T = 0 peptides III-5 or III-6 were added to a final concentration of 40 μg/ml which is very close to the MIC value for both of these peptides (Fig. 4).
Figure 4 Overproduction of DnaN in S. aureus relieves the growth inhibition imposed by peptides III-5 and […]. S. aureus strain 8325-4 containing either the vector plasmid pCN51 (black filled squares) or plasmid pSC141 (grey triangles) was grown exponentially at 37°C in LB medium supplemented with 10 μg/ml erythromycin. CdCl2 was added to all cultures to a final concentration of 10 μM to induce overproduction of DnaN from pSC141 three hours prior to peptide addition. At T = 0, 40 μg/ml of peptide III-5 (middle panel) or III-6 (bottom panel) was added to the cultures. The number of colony forming units was determined by plating. The experiment were repeated 4 times with similar results.

[8] = test system: S. aureus strain 8325-4; assay: Fluorescence microscopy with DAPI staining (cell size, DNA content); assay type: cell-based, Staphylococcus aureus; conditions: 50 μg/ml; LB, 37°C
From the text: The effect of peptides III-5 and III-6 on cell size and DNA content was visualized by fluorescence microscopy. […] A likely explanation is that peptide III-6, through its inhibitory effect on DNA synthesis, also results in an inability for cells to divide. Similar observations have been made for E. coli where failure to complete chromosome replication result in division inhibition and filamentation.
Figure 7 Peptide III-6 affect S. aureus cell size, morphology and DNA content. S. aureus strain 8325−4 was grown exponentially at 37°C in LB medium. […] Cells were stained with DAPI prior to fluorescence microscopy (Materials and Methods).
S. aureus strain 8325-4 or B. subtilis strain 168 was grown exponentially at 37°C in LB. […] The cells were stained with the live/dead stain according to the manufacturer. Phase-contrast and fluorescence images were acquired using a Leica DM5000B microscope with a×100 HCX PL APO NA 1.4 objective and a Leica DFC350FX cooled charge-coupled device camera controlled through FW4000 software (version 1.2.1; Leica Microsystems).

[9] = target: DnaN (β), β-sliding clamp of S. aureus (S. aureus) (UniProt P0A024)
Sequence of UniProt P0A024 (P0A024 whole entry): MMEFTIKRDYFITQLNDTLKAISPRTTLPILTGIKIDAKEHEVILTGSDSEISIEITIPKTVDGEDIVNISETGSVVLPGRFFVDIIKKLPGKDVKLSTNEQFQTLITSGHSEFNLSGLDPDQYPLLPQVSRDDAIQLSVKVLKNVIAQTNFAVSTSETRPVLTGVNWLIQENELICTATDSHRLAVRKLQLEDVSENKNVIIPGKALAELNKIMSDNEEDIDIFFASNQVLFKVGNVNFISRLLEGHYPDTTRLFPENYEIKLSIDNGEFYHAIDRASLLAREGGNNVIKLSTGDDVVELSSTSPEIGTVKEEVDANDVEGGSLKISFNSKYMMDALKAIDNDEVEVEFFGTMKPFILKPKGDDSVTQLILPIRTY

CC(C)C[C@@H]1NC(=O)[C@H](Cc2ccccc2)NC(=O)[C@H](C(C)C)NC(=O)[C@H](CCCNC(=N)N)NC(=O)[C@H](CS)NC(=O)[C@H](CS)NC(=O)CNC(=O)[C@H](CS)NC1=O [III-5] (cyclo(CRVFLCGC))
Potency against S. epidermidis compared with S. aureus [1]: somewhat more potent against S. epidermidis | Ability to interfere with DnaN dimerization after reduction to 8-mers [2]: retaining their ability to interfere with DnaN dimerization | Reduction of DnaN-DnaN interaction when produced intracellularly [2]: efficient in reducing DnaN-DnaN interaction | MIC values (range given for the three active cyclic peptides) ([3]; cyclic peptides, summary over S. aureus (III-5, III-6) and S. epidermidis (III-7)): 20−50 μg/ml | MIC for cyclic peptide ([4]; cyclic 8-mer CRXXXXXX, determined for S. aureus, highest concentration tested 100 μg/ml): 50 mg/L | MIC for cyclic peptide (molar) ([4]; cyclic 8-mer CRXXXXXX, determined for S. aureus, value in brackets): 57 µM | Accumulation of DNA (3H-thymidine incorporation) [5]: severely reduced accumulation of DNA | Protein synthesis (35S-methionine incorporation) [6]: unaffected | Bacterial growth of uninduced cultures after peptide addition [7]: cessation of bacterial growth | Bacterial growth of cultures overproducing DnaN after peptide addition [7]: continued growth

CC(C)C[C@@H]1NC(=O)CNC(=O)[C@H](CCC(N)=O)NC(=O)[C@H](CO)NC(=O)[C@H](CCCNC(=N)N)NC(=O)[C@H](CS)NC(=O)[C@H](CCCCN)NC(=O)[C@H](Cc2ccccc2)NC1=O [III-6] (cyclo(CRSQGLFK))
Potency against S. epidermidis compared with S. aureus [1]: somewhat more potent against S. epidermidis | Ability to interfere with DnaN dimerization after reduction to 8-mers [2]: retaining their ability to interfere with DnaN dimerization | Reduction of DnaN-DnaN interaction when produced intracellularly [2]: efficient in reducing DnaN-DnaN interaction | MIC values (range given for the three active cyclic peptides) [3]: 20−50 μg/ml | Accumulation of DNA (3H-thymidine incorporation) [5]: severely reduced accumulation of DNA | Protein synthesis (35S-methionine incorporation) [6]: unaffected | Cell size [8]: increased cell size | DNA distribution between cells (DAPI staining) [8]: uneven DNA distribution between cells | Bacterial growth of uninduced cultures after peptide addition [7]: cessation of bacterial growth | Bacterial growth of cultures overproducing DnaN after peptide addition [7]: continued growth

CC(C)[C@@H]1NC(=O)[C@H](Cc2c[nH]c3ccccc23)NC(=O)[C@H](C(C)C)NC(=O)[C@H](Cc2c[nH]cn2)NC(=O)CNC(=O)[C@H](CCCNC(=N)N)NC(=O)[C@H](CS)NC(=O)[C@H](CC(=O)O)NC1=O [III-7] (cyclo(CRGHVWVD))
Ability to interfere with DnaN dimerization after reduction to 8-mers [2]: retaining their ability to interfere with DnaN dimerization | Reduction of DnaN-DnaN interaction when produced intracellularly [2]: efficient in reducing DnaN-DnaN interaction | MIC values (range given for the three active cyclic peptides) [3]: 20−50 μg/ml

CC(C)C[C@@H]1NC(=O)[C@H](CO)NC(=O)[C@H](CCC(=O)O)NC(=O)[C@H](Cc2ccccc2)NC(=O)[C@H]([C@@H](C)O)NC(=O)[C@H](CO)NC(=O)[C@H](CCCNC(=N)N)NC(=O)[C@H](CS)NC1=O [III-8] (cyclo(CRSTFESL))
Reduction of DnaN-DnaN interaction when produced intracellularly [2]: efficient in reducing DnaN-DnaN interaction | MIC for cyclic peptide [4]: > 100 mg/L

CC(C)C[C@H](NC(=O)[C@H](Cc1ccccc1)NC(=O)[C@@H](NC(=O)[C@H](CCCNC(=N)N)NC(=O)[C@@H](N)CS)C(C)C)C(=O)N[C@@H](CS)C(=O)NCC(=O)N[C@@H](CS)C(=O)O [linear III-5] (H-CRVFLCGC-OH)
MIC for linear peptide [4]: > 560 mg/L

CC(C)C[C@H](NC(=O)[C@@H](NC(=O)[C@H](Cc1ccccc1)NC(=O)[C@H](CC(C)C)NC(=O)[C@H](Cc1c[nH]c2ccccc12)NC(=O)[C@H](CS)NC(=O)[C@H](CCCNC(=N)N)NC(=O)[C@@H](N)CS)C(C)C)C(=O)O [linear IV-N8] (H-CRCWLFVL-OH)
MIC for linear peptide [1]: >1124 ^4 (>1.08) μg/ml

CRGHVWVD [linear III-7]
MIC for linear peptide [4]: > 560 mg/L

CRSQGLFK [linear III-6]
MIC for linear peptide [4]: > 560 mg/L

cyclo(CRCWLFVL) (cysteine pairing not given here) [IV-N8, cyclic 8-mer CRCWLFVL synthesized via FMOC SPPS]
MIC for cyclic peptide ([1]; cyclic 8-mer CRXXXXXX, determined for S. epidermidis, highest concentration tested 100 μg/ml): > 100 mg/L | Ability to interfere with DnaN dimerization after reduction to 8-mers [2]: retaining their ability to interfere with DnaN dimerization

purified cyclic peptide III-5 (CRVFLCGC)
MIC for cyclic peptide, determined for S. aureus [9]: 50 μg/ml and 57 μM

purified cyclic peptide III-6 (CRSQGLFK)
MIC for cyclic peptide, determined for S. aureus [9]: 50 μg/ml and 54 μM
